Results taken from article PMC6269716 (2013).

Tests used:
[1] = tested on: F21T (HTelo-21, FRET) (DNA, G4) GGGTTAGGGTTAGGGTTAGGG; assay: FRET melting; conditions: K+ (60 mM); potassium cacodylate pH 7.4; 1 µM compound; 200 nM DNA
[2] = tested on: BCL2 (FRET) (DNA, G4) GGGCGCGGGAGGAAGGGGGCGGG; assay: FRET melting; conditions: K+ (60 mM); potassium cacodylate pH 7.4; 1 µM compound; 200 nM DNA
[3] = tested on: CKIT1 (c-kit-1, FRET) (DNA, G4) AGAGGGAGGGCGCTGGGAGGAGGGGCT; assay: FRET melting; conditions: K+ (60 mM); potassium cacodylate pH 7.4; 1 µM compound; 200 nM DNA
[4] = tested on: T Loop (DNA, hairpin, hexaethyleneglycol (HEG) linker between nucleotides 10 and 11 as hairpin loop) TATAGCTATATATAGCTATA; assay: FRET melting; conditions: K+ (60 mM); potassium cacodylate pH 7.4; 1 µM compound; 200 nM DNA
[5] = tested on: HTelo21 (DNA, G4) GGGTTAGGGTTAGGGTTAGGG; assay: ESI-MS peak intensities; conditions: NH4+ (150 mM ammonium acetate); 15% methanol added before injection; 5 µM DNA; site 1 of 2
[6] = tested on: DK66 (DNA, duplex) CGCGAATTCGCG; assay: ESI-MS peak intensities; conditions: NH4+ (150 mM ammonium acetate), 15% methanol added before injection, 5 µM DNA

Compound	ΔTm [1] [°C]	ΔTm [2] [°C]	ΔTm [3] [°C]	ΔTm [4] [°C]	Log K1 [5]	Log K1 ([6]; site 1 of 2)	Log K1 [6]
CN(C)CCCCCC(=O)c1ccc2c(c1)C(CCCCN(C)C)c1cc(C(=O)CCCCCN(C)C)ccc1O2	11.9 ± 0.1	4.8 ± 0.1	7.9 ± 0.1	2.2 ± 0.1	5.2 ± 0.4	3.6 ± 0.3	
CN(C)CCCCCC(=O)c1ccc2c(c1)Cc1cc(C(=O)CCCCCN(C)C)ccc1O2					4.6 ± 0.1	3.4 ± 0.2	
CN(C)CCCCCC(=O)c1ccc2oc3ccc(C(=O)CCCCCN(C)C)cc3c(=O)c2c1					4.0 ± 0.1	3.3 ± 0.2	
CN1CCN(CCCCCC(=O)c2ccc3c(c2)Cc2cc(C(=O)CCCCCN4CCN(C)CC4)ccc2O3)CC1					4.4 ± 0.1	3.7 ± 0.1	
O=C(CCCCCN1CCCCC1)c1ccc2c(c1)C(CCCC1c3cc(C(=O)CCCCCN4CCCCC4)ccc3Oc3ccc(C(=O)CCCCCN4CCCCC4)cc31)c1cc(C(=O)CCCCCN3CCCCC3)ccc1O2					5.8 ± 0.1	3.9 ± 0.1	
O=C(CCCCCN1CCCCC1)c1ccc2c(c1)Cc1cc(C(=O)CCCCCN3CCCCC3)ccc1O2	1.3 ± 0.1	0.7 ± 0.1	1.0 ± 0.1	0.4 ± 0.1	4.7 ± 0.1	3.8 ± 0.2	
O=C(CCCCCN1CCCCC1)c1ccc2oc3ccc(C(=O)CCCCCN4CCCCC4)cc3c(=O)c2c1					4.4 ± 0.1	3.7 ± 0.1	

Other lines, results leading:

ΔTm [1] [°C]	ΔTm [2] [°C]	ΔTm [3] [°C]	ΔTm [4] [°C]	Log K1 [5]	Log K1 ([6]; site 1 of 2)	Log K1 [6]	Compound
				4.7 ± 0.1	3.6 ± 0.1		CN(C)CCCCOc1ccc2c(=O)c3ccc(OCCCCN(C)C)cc3oc2c1
				4.1 ± 0.1	1.8 ± 0.2		CN1CCN(CCCCCC(=O)c2ccc3oc4ccc(C(=O)CCCCCN5CCN(C)CC5)cc4c(=O)c3c2)CC1
				4.3 ± 0.1	3.5 ± 0.1		CN1CCN(CCCCOc2ccc3c(=O)c4ccc(OCCCCN5CCN(C)CC5)cc4oc3c2)CC1
				4.7 ± 0.1		3.4 ± 0.1	O=c1c2ccc(OCCCCN3CCCCC3)cc2oc2cc(OCCCCN3CCCCC3)ccc12
